Tests used:
Assay in all cases: relative viability (nuclei count vs DMSO), 5 days (fraction); higher = more cells survive
[1] = compound: CN(c1ncccc1CNc1nc(Nc2ccc3c(c2)CC(=O)N3)ncc1C(F)(F)F)S(C)(=O)=O
Procedure, shortened: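 Following overnight incubation at 37 °C, lung cancer cell lines in 1536-well plates were pinned with five library-drug doses (not always all listed) in √10 steps on vehicle-anchored plates. The cells then spent 5 days without medium change before a combined fix, permeabilisation and Hoechst stain, 4× imaging and MetaXpress nuclear counts. Viability is the treated-to-vehicle ratio of nuclei, taken as the median across plates. Only plates with control CV below 25% and at least one doubling passed.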

[2] = compound: CN(c1ncccc1CNc1nc(Nc2ccc3c(c2)CC(=O)N3)ncc1C(F)(F)F)S(C)(=O)=O + CC(=O)Nc1cccc(-n2c(=O)n(C3CC3)c(=O)c3c(Nc4ccc(I)cc4F)n(C)c(=O)c(C)c32)c1 [Trametinib] (partner 0.02 µM)
Procedure, shortened: (§1)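 One day after seeding in 1536-well plates, lung cancer cell lines were dosed by pin tool. Dosing was either single-drug or a fixed anchor-drug dose plus five library-drug doses (not always all listed) in √10 steps. After 5 days, nuclei were stained in one fix-and-stain step and counted on 4× images, and relative viability is the nuclei count of treated wells over that of vehicle wells, given as the median of duplicate plates.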

[3] = compound: CN(c1ncccc1CNc1nc(Nc2ccc3c(c2)CC(=O)N3)ncc1C(F)(F)F)S(C)(=O)=O + N=C(N)NC(=N)NCCc1ccccc1 [Phenformin] (partner 250 µM)
Procedure, shortened: as §1

[4] = compound: CN(c1ncccc1CNc1nc(Nc2ccc3c(c2)CC(=O)N3)ncc1C(F)(F)F)S(C)(=O)=O + O=C(c1cc(Cc2n[nH]c(=O)c3ccccc23)ccc1F)N1CCN(C(=O)C2CC2)CC1 [Olaparib] (partner 8 µM)
Procedure, shortened: as §1

Cell Line	relative viability ([1]; 0.01 µM)	relative viability ([1]; 0.03162 µM)	relative viability ([1]; 0.1 µM)	relative viability ([1]; 0.3162 µM)	relative viability ([1]; 1 µM)	relative viability ([2]; first compound 0.01 µM)	relative viability ([2]; first compound 0.03162 µM)	relative viability ([2]; first compound 0.1 µM)	relative viability ([2]; first compound 0.3162 µM)	relative viability ([2]; first compound 1 µM)	relative viability ([3]; first compound 0.01 µM)	relative viability ([3]; first compound 0.03162 µM)	relative viability ([3]; first compound 0.1 µM)	relative viability ([3]; first compound 0.3162 µM)	relative viability ([3]; first compound 1 µM)	relative viability ([4]; first compound 0.01 µM)	relative viability ([4]; first compound 0.03162 µM)	relative viability ([4]; first compound 0.1 µM)	relative viability ([4]; first compound 0.3162 µM)	relative viability ([4]; first compound 1 µM)
HCC-827	1.05	1.08	1.04	1.01	0.989	0.574	0.517	0.496	0.56	0.495	0.402	0.465	0.432	0.441	0.404	0.635	0.557	0.647	0.707	0.705
ChaGo-K-1	0.963	1.08	0.948	0.96	1.02	0.959	0.923	0.999	0.912	0.849	0.489	0.444	0.461	0.489	0.404	0.453	0.397	0.4	0.401	0.355
NCI-H2228	1.01	1.23	1.23	1.01	0.921	0.553	0.81	0.473	0.384	0.483	0.321	0.471	0.306	0.331	0.292	0.619	1.01	0.665	0.766	0.539
NCI-H2170	0.962	1.13	1	0.965	0.981	0.964	0.906	0.895	0.956	0.94	0.404	0.47	0.424	0.332	0.323	0.684	0.652	0.672	0.604	0.521
EMC-BAC-2	1.02	0.921	0.938	0.948	0.948	0.872	0.887	0.855	0.841	0.722	0.628	0.568	0.496	0.551	0.452	0.508	0.495	0.488	0.464	0.464
NCI-H2342	0.884	1.02	0.791	0.962	0.854	0.906	0.819	0.753	0.774	0.806	0.638	0.563	0.475	0.522	0.475	0.494	0.503	0.471	0.352	0.398
NCI-H23	1.02	0.963	1.06	1.06	0.973	0.392	0.319	0.388	0.466	0.404	0.856	0.835	0.864	0.787	0.734	0.337	0.345	0.389	0.319	0.306
RERF-LC-KJ	0.986	1.16	1.03	0.989	1.01	0.76	0.905	0.949	0.904	0.937	0.409	0.458	0.419	0.463	0.412	0.983	0.945	0.97	0.849	0.927
NCI-H358	0.943	0.973	0.868	0.838	0.664	0.12	0.125	0.108	0.126	0.0973	0.336	0.338	0.317	0.317	0.202	0.61	0.57	0.573	0.532	0.416
LC-2-ad	1.01	1.01	0.966	0.883	0.967	0.876	0.932	0.926	0.905	0.793	0.52	0.544	0.548	0.567	0.524	0.732	0.703	0.703	0.664	0.596
HCC-15	1.02	1.06	0.888	0.908	0.853	0.344	0.378	0.35	0.35	0.336	0.492	0.501	0.463	0.384	0.405	0.778	0.799	0.713	0.661	0.619
NCI-H2405	1.06	0.935	0.931	0.8	0.82	0.633	0.676	0.596	0.596	0.584	0.402	0.376	0.385	0.248	0.392	0.879	0.922	0.78	0.702	0.641
LXF-289	1.09	1.05	1.01	0.991	1.01	0.706	0.693	0.648	0.664	0.633	0.542	0.55	0.538	0.521	0.525	1.1	1.21	1.04	1.11	1.02
CAL-12T	1.03	0.979	0.914	0.865	0.849	0.363	0.304	0.32	0.358	0.357	0.628	0.523	0.536	0.512	0.444	0.766	0.697	0.619	0.775	0.636
COR-L23	1.01	1.1	0.981	1	0.8	0.563	0.66	0.57	0.605	0.516	0.464	0.54	0.416	0.424	0.332	0.382	0.344	0.33	0.305	0.278
NCI-H1755	1.05	1.05	0.956	0.922	0.938	0.766	0.833	0.786	0.758	0.733	0.666	0.615	0.589	0.585	0.574	0.909	0.904	0.83	0.791	0.839
